What was measured:
Salmonella typhimurium = type: cell-based, Salmonella enterica seovar Typhimurium; settings: sugar in MacConkey medium; BMO 2 g per 100 ml; strains 4, 6, 7
Vibrio cholerae = type: cell-based; settings: sugar in MacConkey medium; BMO 2 g per 100 ml; strains 10, 11
E. coli O157:H7 = type: cell-based; settings: sugar in MacConkey medium; BMO 2 g per 100 ml; strain 3
[1] = tested on: E. coli K12 (DH5alpha, lac minus); assay: Growth on MacConkey agar plates (lactose or BMO); type: cell-based; settings: sugar in MacConkey medium; BMO 2 g per 100 ml; strain 2
Description: (§1) FIGS. 3A-3B illustrate growth of select pathogens on BMO. […] The Lac operon permease can transport BMO trimers and tetramers. […] BMOs were suspended at 1 gr/10 mL of sterile water, 10 N NaOH was added until the pH was 7. The BMO solution was used in a MacConkey medium to generate agar plates.

E. coli K12 = assay: Growth on MacConkey agar plates (lactose or BMO); type: cell-based; settings: sugar in MacConkey medium; BMO 2 g per 100 ml; strain 1
Description: as §1

[2] = tested on: Salmonella typhimurium+lac operon; assay: Growth on MacConkey agar plates (lactose or BMO); type: cell-based; settings: sugar in MacConkey medium; BMO 2 g per 100 ml; strain 5
Description: as §1

Yersinia enterocolitica = assay: Growth on MacConkey agar plates (lactose or BMO); type: cell-based; settings: sugar in MacConkey medium; BMO 2 g per 100 ml; strain 9
Description: as §1

Listeria monocytognes = assay: Growth on MacConkey agar plates (lactose or BMO); type: cell-based, Listeria monocytogenes; settings: sugar in MacConkey medium; BMO 2 g per 100 ml; strain 8
Description: as §1

In the case of `OC[C@H]1O[C@@H](O[C@H]2[C@H](O)[C@@H](O)C(O)O[C@@H]2CO)[C@H](O)[C@@H](O)[C@H]1O` (some centres unmarked) [Lactose], the “growth on MacConkey agar plate” value (Salmonella typhimurium) is reported as “negative”, the “growth on MacConkey agar plate” value (Vibrio cholerae) is reported as “negative” and the “growth on MacConkey agar plate (red strikes)” value (“growth … (red strikes)” below) (E. coli O157:H7) is reported as “growth observed”. For the same compound, the “growth on MacConkey agar plate” value [1] was “negative”, the “growth … (red strikes)” value (E. coli K12) was “growth observed” and the “growth … (red strikes)” value [2] was “growth observed”. The “growth on MacConkey agar plate” value (Yersinia enterocolitica) was “negative” and the “growth on MacConkey agar plate” value (Listeria monocytognes) was “negative”.

Source: US10918653B2, “Bovine milk oligosaccharides” (The Regents of the University of California, priority 2010, dated 2021)
